Measurements reported in publication PMC2652632 (Biochemistry, 2008).
Entries after “also recorded” stand apart in the source; their conditions may differ.

Key:
IDE-CF [1] = target: T1, IDE-CF (Homo sapiens, UniProt P14735, C110L/C171S/C178A/C257V/C414L/C573N/C590S/C789S/C812A/C819A/C904S/C966N/C974A); assay: Specific activity of IDE-CF with substrate V; type: biochemical; settings: 0.5 μM fluorogenic substrate V
IDE-WT [2] = target: T2, IDE-WT (Homo sapiens, UniProt P14735); assay: Specific activity of IDE-WT with substrate V; type: biochemical; settings: 0.5 μM fluorogenic substrate V
T2 sequence (P14735 whole entry): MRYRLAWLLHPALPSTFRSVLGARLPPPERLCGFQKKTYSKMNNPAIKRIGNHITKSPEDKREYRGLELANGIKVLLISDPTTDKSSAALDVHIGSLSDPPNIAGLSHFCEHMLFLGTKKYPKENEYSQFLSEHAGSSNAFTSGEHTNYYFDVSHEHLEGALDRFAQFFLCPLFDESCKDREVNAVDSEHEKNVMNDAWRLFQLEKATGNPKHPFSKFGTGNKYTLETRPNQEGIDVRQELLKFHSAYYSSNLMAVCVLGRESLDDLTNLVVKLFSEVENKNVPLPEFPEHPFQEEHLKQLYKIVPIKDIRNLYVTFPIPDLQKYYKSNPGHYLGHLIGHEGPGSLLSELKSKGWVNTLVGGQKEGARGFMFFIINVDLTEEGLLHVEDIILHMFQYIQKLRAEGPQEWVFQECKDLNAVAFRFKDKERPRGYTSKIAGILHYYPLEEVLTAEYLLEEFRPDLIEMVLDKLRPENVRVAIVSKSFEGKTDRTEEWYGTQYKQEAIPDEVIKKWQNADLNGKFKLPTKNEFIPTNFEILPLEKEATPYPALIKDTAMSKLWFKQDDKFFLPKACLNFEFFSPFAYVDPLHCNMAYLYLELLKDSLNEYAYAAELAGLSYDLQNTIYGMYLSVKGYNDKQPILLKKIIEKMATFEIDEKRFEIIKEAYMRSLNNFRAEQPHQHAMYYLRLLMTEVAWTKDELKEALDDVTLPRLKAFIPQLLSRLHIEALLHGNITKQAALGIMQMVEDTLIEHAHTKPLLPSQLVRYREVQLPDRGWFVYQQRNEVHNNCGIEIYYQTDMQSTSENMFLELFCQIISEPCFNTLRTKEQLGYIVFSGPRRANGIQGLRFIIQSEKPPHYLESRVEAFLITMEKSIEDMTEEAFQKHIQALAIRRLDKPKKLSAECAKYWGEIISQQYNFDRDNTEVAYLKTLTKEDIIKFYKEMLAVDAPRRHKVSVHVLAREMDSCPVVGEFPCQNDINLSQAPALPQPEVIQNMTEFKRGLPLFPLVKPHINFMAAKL

IDE [3] = settings: ref 16 (b4: ref 16, 17); cited from earlier work
IDE-CF-123 = assay: Sensitivity of IDE-CF-123 to NEM, GSNO and H2O2; type: biochemical, human; settings: for inhibition by GSNO / H2O2 (in words): IDE-CF-123, substrate V or FAβB; for sensitivity to GSNO / H2O2 relative to IDE-WT (in words): IDE-CF-123 compared to IDE-WT
IDE-CF-4 = assay: Sensitivity of IDE-CF-4 to NEM, GSNO and H2O2; type: biochemical, human; settings: for inhibition by GSNO / H2O2 (in words): IDE-CF-4, substrate V or FAβB
IDE-CF-A819C = assay: Sensitivity of IDE-CF-A819C to NEM, GSNO and H2O2; type: biochemical, human; settings: for sensitivity to GSNO / H2O2 relative to IDE-WT (in words): IDE-CF-A819C compared to IDE-WT; for NEM sensitivity (in words): IDE-CF-A819C
IDE-WT [4] = target: T2, IDE-WT; assay: Sensitivity of IDE-WT to NEM, GSNO and H2O2; type: biochemical; settings: for inactivation of IDE by NEM / H2O2 / GSNO (in words): substrates mimicking both Aβ and bradykinin
IDE [5] = settings: cited from earlier work
rat IDE = settings: cited from earlier work
IDE-CF [6] = target: T1, IDE-CF; assay: Sensitivity of cysteine-free IDE-CF to NEM, GSNO and H2O2; type: biochemical
IDE M1 = assay: NEM sensitivity of IDE mutant M1; type: biochemical, human; settings: IDE M1 (C904S/C966N), 0.2 and 1 mM NEM, 1 h, substrate V
IDE M4 = assay: NEM sensitivity of IDE mutant M4; type: biochemical, human; settings: IDE M4 (C789S/C904S/C966N/C974A), 0.2 and 1 mM NEM, 1 h, substrate V
IDE M5 = assay: NEM sensitivity of IDE mutant M5; type: biochemical, human; settings: IDE M5 (C789S/C819A/C904S/C966N), 0.2 and 1 mM NEM, 1 h, substrate V
IDE-CF-A812C = assay: NEM sensitivity of IDE-CF-A812C; type: biochemical, human; settings: fully purified, 0.15, 0.6 and 2.5 mM NEM, 1 h, substrate V
IDE-WT-C819A = assay: NEM sensitivity of IDE-WT-C819A; type: biochemical, human; settings: 0–1 mM NEM, substrate V, compared to IDE-CF4 and IDE-WT
812C mutant of IDE = settings: single 812C mutant, only Ni-NTA purified; cited from earlier work
IDE M2 = assay: NEM sensitivity of IDE mutant M2; type: biochemical, human; settings: IDE M2 (C789S/C904S/C966N), 0.2 and 1 mM NEM, 1 h, substrate V
IDE M3 = assay: NEM sensitivity of IDE mutant M3; type: biochemical, human; settings: IDE M3 (C812A/C819A/C904S/C966N), 0.2 and 1 mM NEM, 1 h, substrate V
human IDE (IDE-CF) [7] = target: T3, human IDE (IDE-CF) (Homo sapiens, UniProt P14735, C110L/C171S/C178A/C257V/C414L/C573N/C590S/C789S/C812A/C819A/C904S/C966N/C974A); assay: Mass spectrometry analysis of kinins degradation by IDE-CF; type: biochemical; settings: for major cleavage site: 50 mM potassium phosphate pH 7.3, MALDI-TOF and MS-MS
T3 sequence (P14735 whole entry C110L/C171S/C178A/C257V/C414L/C573N/C590S/C789S/C812A/C819A/C904S/C966N/C974A): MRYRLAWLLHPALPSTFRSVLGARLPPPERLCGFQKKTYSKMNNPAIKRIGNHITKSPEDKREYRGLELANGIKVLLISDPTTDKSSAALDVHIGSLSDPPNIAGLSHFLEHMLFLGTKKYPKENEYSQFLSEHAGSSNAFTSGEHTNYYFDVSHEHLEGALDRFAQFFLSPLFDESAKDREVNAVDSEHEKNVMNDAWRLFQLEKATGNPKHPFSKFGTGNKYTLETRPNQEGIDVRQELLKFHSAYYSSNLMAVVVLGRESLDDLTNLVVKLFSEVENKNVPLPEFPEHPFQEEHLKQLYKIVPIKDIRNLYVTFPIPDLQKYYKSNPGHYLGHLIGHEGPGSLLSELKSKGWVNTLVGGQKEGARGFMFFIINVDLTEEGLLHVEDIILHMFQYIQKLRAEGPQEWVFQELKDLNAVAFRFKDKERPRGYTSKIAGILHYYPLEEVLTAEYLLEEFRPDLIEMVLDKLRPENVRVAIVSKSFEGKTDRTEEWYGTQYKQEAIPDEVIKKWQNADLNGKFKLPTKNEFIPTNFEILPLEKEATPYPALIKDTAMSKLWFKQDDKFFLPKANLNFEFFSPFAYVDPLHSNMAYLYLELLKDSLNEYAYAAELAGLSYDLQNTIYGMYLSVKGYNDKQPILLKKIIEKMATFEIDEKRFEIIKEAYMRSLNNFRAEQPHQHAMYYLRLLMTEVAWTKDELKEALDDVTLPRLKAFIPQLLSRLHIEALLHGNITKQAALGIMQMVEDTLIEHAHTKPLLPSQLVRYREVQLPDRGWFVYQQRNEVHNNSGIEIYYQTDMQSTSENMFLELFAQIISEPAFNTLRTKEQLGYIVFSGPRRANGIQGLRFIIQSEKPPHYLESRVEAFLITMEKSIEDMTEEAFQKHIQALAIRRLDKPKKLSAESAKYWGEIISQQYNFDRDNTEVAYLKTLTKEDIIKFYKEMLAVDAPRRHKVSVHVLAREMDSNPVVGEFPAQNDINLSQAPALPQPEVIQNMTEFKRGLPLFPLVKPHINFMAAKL

NEP = settings: cited from earlier work
ACE = settings: cited from earlier work
human IDE (IDE-CF) [8] = target: T3, human IDE (IDE-CF); assay: Kinetic analysis of kinin degradation by IDE-CF; type: biochemical; settings: for kcat for degradation by IDE: IDE-CF, competition with 0.5 μM substrate V, 50 mM potassium phosphate pH 7.3, 37 °C
IDE [9] = settings: insulin; literature value, reference not given; cited from earlier work
IDE [10] = assay: Degradation of insulin and short substrates by IDE; type: biochemical; settings: insulin 100 nM vs kinins 4–7 mM

T1 sequence (P14735 whole entry C110L/C171S/C178A/C257V/C414L/C573N/C590S/C789S/C812A/C819A/C904S/C966N/C974A): as above

7-methoxycoumarin-4-yl-acetyl-NPPGFSAFK-2,4-dinitrophenyl [substrate V]
specific activity (IDE-CF [1]): 4.5 ± 0.1 min⁻¹ | specific activity (IDE-WT [2]): 3.0 ± 0.4 min⁻¹

Nc1ncnc2c1ncn2[C@@H]1O[C@H](COP(=O)(O)OP(=O)(O)OP(=O)(O)O)[C@@H](O)[C@H]1O [ATP]
activation of IDE (in words) (IDE [3]): can activate IDE

N[C@@H](CCC(=O)N[C@@H](CSN=O)C(=O)NCC(=O)O)C(=O)O [GSNO, S-nitroso-glutathione]
inhibition by GSNO / H2O2 (in words) (IDE-CF-123): inactivated | sensitivity to GSNO / H2O2 relative to IDE-WT (in words) (IDE-CF-123): more sensitive | inhibition by GSNO / H2O2 (in words) (IDE-CF-4): relatively resistant | sensitivity to GSNO / H2O2 relative to IDE-WT (in words) (IDE-CF-A819C): more sensitive | inactivation of IDE by NEM / H2O2 / GSNO (in words) (IDE-WT [4]): potently inactivate the catalytic activity of IDE

OO [H2O2, hydrogen peroxide]
inhibition by GSNO / H2O2 (in words) (IDE-CF-123): inactivated | sensitivity to GSNO / H2O2 relative to IDE-WT (in words) (IDE-CF-123): more sensitive | inhibition by GSNO / H2O2 (in words) (IDE-CF-4): relatively resistant | inhibition by sulfhydryl-directed reactions (in words) (IDE [5]): sensitive to inhibition | sensitivity to GSNO / H2O2 relative to IDE-WT (in words) (IDE-CF-A819C): more sensitive | inactivation of rat IDE (in words) (rat IDE): inactivate rat IDE | inactivation of IDE by NEM / H2O2 / GSNO (in words) (IDE-WT [4]): potently inactivate the catalytic activity of IDE | inhibition by GSNO / H2O2 / NEM (in words) (IDE-CF [6]; cysteine-free IDE-CF, substrate V or FAβB, 1 mM reagent): insensitive to the inhibition

CCN1C(=O)C=CC1=O [NEM, N-ethyl-maleimide]
NEM sensitivity (in words) (IDE M1): susceptibility to NEM | NEM sensitivity (in words) (IDE M4): susceptibility to NEM | NEM sensitivity relative to IDE-WT (in words) (IDE-CF-123; IDE-CF-123, 0.2 and 1 mM NEM, 1 h, substrate V): more sensitive | NEM sensitivity (in words) (IDE-CF-123; IDE-CF-123, 0.2 and 1 mM NEM, 1 h, substrate V, partially purified): highly sensitive to NEM | NEM sensitivity (in words) (IDE M5): partial resistance | NEM sensitivity (in words) (IDE-CF-4; IDE-CF-4, 0.2 and 1 mM NEM, 1 h, substrate V, partially purified): significantly reduced sensitivity | mode of inhibition (IDE [5]; S-alkylation of IDE by NEM): non-competitive | inhibition by sulfhydryl-directed reactions (in words) (IDE [5]): sensitive to inhibition | NEM sensitivity (in words) (IDE-CF-A812C): does not induce a similar inhibition effect as Cys 819 | NEM sensitivity (in words) (IDE-CF-A819C; fully purified, 0.15, 0.6 and 2.5 mM NEM, 1 h, substrate V): only IDE-CF-A819C is highly sensitive to the NEM inactivation | NEM sensitivity (in words) (IDE-CF-A819C; partially purified (preliminary)): sensitivity to NEM | NEM sensitivity (in words) (IDE-WT-C819A): less sensitive to NEM inactivation | susceptibility to alkylation (in words) (812C mutant of IDE): susceptible to alkylation | NEM sensitivity (in words) (IDE M2): susceptibility to NEM | loss of activity (IDE-WT [4]; IDE-WT, 1 mM NEM, 1 h, 25 °C, pH 7.2, 0.5 μM substrate V, control = buffer only): greater than 95% | NEM sensitivity (in words) (IDE-WT [4]; IDE-WT, 0.2–1 mM NEM, 1 h, substrate V): highly sensitive to inhibition by NEM | inactivation of IDE by NEM / H2O2 / GSNO (in words) (IDE-WT [4]): potently inactivate the catalytic activity of IDE | NEM sensitivity (in words) (IDE-CF [6]; IDE-CF, 0.2–1 mM NEM, 1 h, substrate V): relatively resistant to the inactivation by NEM | NEM sensitivity (in words) (IDE M3): partial resistance

bradykinin: vasoactive nonapeptide hormone of the family of kinins, purchased from AnaSpec (RPPGFSPFR)
major cleavage site (human IDE (IDE-CF) [7]; 30 min incubation): at the Pro/Phe site; also recorded: between residues Pro^7 and Phe^8 | minor cleavage site (human IDE (IDE-CF) [7]; 30 min incubation, MALDI-TOF peak m/z 653.32, not confirmed by MS-MS): between residues Gly^4 and Phe^5 | hydrolysis by IDE (in words) (human IDE (IDE-CF) [7]; purified recombinant human IDE, 30-minute incubation, MALDI-TOF): hydrolyzed after 30-minute incubation | cleavage of C-terminal di-peptide (NEP): Same cleavage of the C-terminal di-peptide | cleavage of C-terminal di-peptide (ACE): Same cleavage of the C-terminal di-peptide | activation of IDE (in words) (IDE [3]): activator of IDE | kcat for degradation by IDE (human IDE (IDE-CF) [8]): around 2,000 sec^−1 | affinity of IDE for kinins (in words) (human IDE (IDE-CF) [8]; inferred from Km): low affinity

insulin: large peptide substrate of IDE
Km (IDE [9]): 0.1 µM | Km of insulin relative to kinins (IDE [10]): about five orders of magnitude lower

kallidin
major cleavage site (human IDE (IDE-CF) [7]; 30 min incubation): at the Pro/Phe site; also recorded: between Pro^8 and Phe^9 | kcat for degradation by IDE (human IDE (IDE-CF) [8]): around 2,000 sec^−1
